Laboratory results reported in patent US12391737B2, “Soluble NPY2 receptor agonists” (Boehringer Ingelheim International GmbH, priority 2020, dated 2025).

How the values were obtained:
Solubility determination = conditions: for Sol6: pH 6; for Sol7: pH 7
In short: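 First, TFA-salt peptide was added to 0.1 M sodium diphosphate (pH 6.4 or 7.0) to 10 mg/ml and shaken 2 h at room temperature. Next, insoluble material was filtered off. Finally, filtrate and control, each 1 mg/ml in 50% acetonitrile, were compared by reversed-phase chromatography.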

[1] = target: T1, Human Neuropeptide Y2 Receptor (Homo sapiens, UniProt P49146); experiment: Radioligand binding competition assay (RLB); conditions: Table 3, 125I-PYY(1-36) competition; read-out: Ki
T1 construct: purchased CHEMICON HTS066M
T1 sequence (P49146 1-381): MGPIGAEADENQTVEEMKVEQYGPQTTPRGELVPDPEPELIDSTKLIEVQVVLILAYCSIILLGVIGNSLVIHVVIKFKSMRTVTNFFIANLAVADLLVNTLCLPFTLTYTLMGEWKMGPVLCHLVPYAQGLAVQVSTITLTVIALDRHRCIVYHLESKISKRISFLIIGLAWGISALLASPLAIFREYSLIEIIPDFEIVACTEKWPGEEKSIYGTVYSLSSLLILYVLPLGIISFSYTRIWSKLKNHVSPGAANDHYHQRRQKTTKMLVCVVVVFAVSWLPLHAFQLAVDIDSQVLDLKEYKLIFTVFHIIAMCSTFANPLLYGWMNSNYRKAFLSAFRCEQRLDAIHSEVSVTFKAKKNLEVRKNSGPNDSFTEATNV
In short: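 Filtration competition binding on membranes from cells expressing the receptor, 0.5 μg protein/well, in 50 mM HEPES, 5 mM MgCl2, 1 mM CaCl2, pH 7.4, with 0.2% ovalbumin. Incubation ran 2 h at room temperature, followed by GF/C filtration and scintillation counting. IC50 came from nonlinear sigmoidal fits.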

Row | SMILES | Sol6 (Solubility determination) [mg/mL] | Sol7 (Solubility determination) [mg/mL] | Ki [1] [nM]
1 | CC[C@H](C)[C@H](NC(=O)[C@H](CCC(=O)O)NC(=O)[C@H](CCC(=O)O)NC(=O)[C@@H]1CCCN1C(=O)[C@H](CCC(=O)O)NC(=O)[C@H](C)NC(=O)[C@H](CC(=O)O)NC(=O)[C@H](CCC(=O)O)NC(=O)[C@H](CCC(=O)O)NC(=O)[C@@H]1CCCN1C(=O)[C@H](CCCCNC(=O)CCCCCNC(=O)CC[C@H](NC(=O)CCCCCCCCCCCCCCCCC(=O)O)C(=O)O)NC(=O)[C@H](CCC(=O)O)NC(=O)[C@@H]1CCCN1C(=O)[C@H](C)NC(=O)CC(C)C)C(=O)N[C@@H](CCC(N)=O)C(=O)N[C@@H](CCCNC(=N)N)C(=O)N[C@@H](Cc1ccc(O)cc1)C(=O)N[C@@H](Cc1ccc(O)cc1)C(=O)N[C@H](C(=O)N[C@@H](CO)C(=O)N[C@@H](CC(C)C)C(=O)N[C@@H](CCCNC(=N)N)C(=O)N[C@@H](Cc1c[nH]cn1)C(=O)N[C@@H](Cc1ccc(O)cc1)C(=O)N[C@@H](Cc1ccc(O)cc1)C(=O)N[C@@H](CC(N)=O)C(=O)N[C@@H](Cc1c[nH]c2ccccc12)C(=O)N[C@@H](CC(C)C)C(=O)N[C@H](C(=O)N[C@@H](CCCNC(=N)N)C(=O)N[C@@H](CCC(N)=O)C(=O)N[C@@H](CCCNC(=N)N)C(=O)N[C@@H](Cc1ccc(O)cc1)C(N)=O)[C@@H](C)O)C(C)C [Compound 112, N{alpha-4}-(3-methylbutanoyl)-N{epsilon-7}-(6-[(4S)-4-carboxy-4-(17-carboxyheptadecanamido)butanamido]hexanoyl)-[4A,7K,9E,13E,17I,18Q,22V,28Y,30W,31L]-hPYY(4-36)] | 9.9 | 10.0 | 4.28
2 | CC[C@H](C)[C@H](NC(=O)[C@H](CCC(=O)O)NC(=O)[C@H](CCC(=O)O)NC(=O)[C@@H]1CCCN1C(=O)[C@@H](NC(=O)[C@H](C)NC(=O)[C@H](CC(=O)O)NC(=O)[C@H](CCC(=O)O)NC(=O)[C@H](CCC(=O)O)NC(=O)[C@@H]1CCCN1C(=O)[C@H](CCCCNC(=O)CCCCCNC(=O)CC[C@H](NC(=O)CCCCCCCCCCCCCCCCC(=O)O)C(=O)O)NC(=O)[C@H](CCC(=O)O)NC(=O)[C@@H]1CCCN1C(=O)[C@H](C)NC(=O)CC(C)C)[C@@H](C)O)C(=O)N[C@@H](CCC(N)=O)C(=O)N[C@@H](CCCNC(=N)N)C(=O)N[C@@H](Cc1ccc(O)cc1)C(=O)N[C@@H](Cc1ccc(O)cc1)C(=O)N[C@H](C(=O)N[C@@H](CO)C(=O)N[C@@H](CC(C)C)C(=O)N[C@@H](CCCNC(=N)N)C(=O)N[C@@H](Cc1c[nH]cn1)C(=O)N[C@@H](Cc1ccc(O)cc1)C(=O)N[C@@H](CCC(N)=O)C(=O)N[C@@H](CC(N)=O)C(=O)N[C@@H](Cc1c[nH]c2ccccc12)C(=O)N[C@@H](CC(C)C)C(=O)N[C@H](C(=O)N[C@@H](CCCNC(=N)N)C(=O)N[C@@H](CCC(N)=O)C(=O)N[C@@H](CCCNC(=N)N)C(=O)N[C@@H](Cc1ccc(O)cc1)C(N)=O)[C@@H](C)O)C(C)C [Compound 113, N{alpha-4}-(3-methylbutanoyl)-N{epsilon-7}-(6-[(4S)-4-carboxy-4-(17-carboxyheptadecanamido)butanamido]hexanoyl)-[4A,7K,9E,13T,17I,18Q,22V,28Q,30W,31L]-hPYY(4-36)] | >10.0 | 10.0 | 3.53
3 | CC(C)CC(=O)N[C@@H](C)C(=O)N1CCC[C@H]1C(=O)N[C@@H](CCC(=O)O)C(=O)N[C@@H](CCCCNC(=O)CCCCCNC(=O)CC[C@H](NC(=O)CCCCCCCCCCCCCCCCC(=O)O)C(=O)O)C(=O)N1CCC[C@H]1C(=O)N[C@@H](CCC(=O)O)C(=O)N[C@@H](CCC(=O)O)C(=O)N[C@@H](CC(=O)O)C(=O)N[C@@H](C)C(=O)N[C@H](C(=O)N1CCC[C@H]1C(=O)N[C@@H](CCC(=O)O)C(=O)N[C@@H](CCC(=O)O)C(=O)N[C@@H](CO)C(=O)N[C@@H](CCC(N)=O)C(=O)N[C@@H](CCCNC(=N)N)C(=O)N[C@@H](Cc1ccc(O)cc1)C(=O)N[C@@H](Cc1ccc(O)cc1)C(=O)N[C@H](C(=O)N[C@@H](CO)C(=O)N[C@@H](CC(C)C)C(=O)N[C@@H](CCCNC(=N)N)C(=O)N[C@@H](Cc1c[nH]cn1)C(=O)N[C@@H](Cc1ccc(O)cc1)C(=O)N[C@@H](Cc1ccc(O)cc1)C(=O)N[C@@H](CC(N)=O)C(=O)N[C@@H](Cc1c[nH]c2ccccc12)C(=O)N[C@@H](CC(C)C)C(=O)N[C@H](C(=O)N[C@@H](CCCNC(=N)N)C(=O)N[C@@H](CCC(N)=O)C(=O)N[C@@H](CCCNC(=N)N)C(=O)N[C@@H](Cc1ccc(O)cc1)C(N)=O)[C@@H](C)O)C(C)C)[C@@H](C)O [Compound 119, N{alpha-4}-(3-methylbutanoyl)-N{epsilon-7}-(6-[(4S)-4-carboxy-4-(17-carboxyheptadecanamido)butanamido]hexanoyl)-[4A,7K,9E,13T,17S,18Q,22V,28Y,30W,31L]-hPYY(4-36)] | 9.3 | 9.1 | 5.73
4 | CC[C@H](C)[C@H](NC(=O)[C@H](CCC(=O)O)NC(=O)[C@H](CCC(=O)O)NC(=O)[C@@H]1CCCN1C(=O)[C@@H](NC(=O)[C@H](C)NC(=O)[C@H](C)NC(=O)[C@H](CCC(=O)O)NC(=O)[C@H](CCC(=O)O)NC(=O)[C@@H]1CCCN1C(=O)[C@H](CCCCNC(=O)CCCCCNC(=O)CC[C@H](NC(=O)CCCCCCCCCCCCCCCCC(=O)O)C(=O)O)NC(=O)[C@H](C)NC(=O)[C@@H]1CCCN1C(=O)[C@H](C)NC(=O)CC(C)C)[C@@H](C)O)C(=O)N[C@@H](CCC(N)=O)C(=O)N[C@@H](CCCNC(=N)N)C(=O)N[C@@H](Cc1ccc(O)cc1)C(=O)N[C@@H](Cc1ccc(O)cc1)C(=O)N[C@H](C(=O)N[C@@H](C)C(=O)N[C@@H](CC(C)C)C(=O)N[C@@H](CCCNC(=N)N)C(=O)N[C@@H](Cc1c[nH]cn1)C(=O)N[C@@H](Cc1ccc(O)cc1)C(=O)N[C@@H](Cc1ccc(O)cc1)C(=O)N[C@@H](CC(N)=O)C(=O)N[C@@H](Cc1c[nH]c2ccccc12)C(=O)N[C@@H](CC(C)C)C(=O)N[C@H](C(=O)N[C@@H](CCCNC(=N)N)C(=O)N[C@@H](CCC(N)=O)C(=O)N[C@@H](CCCNC(=N)N)C(=O)N[C@@H](Cc1ccc(O)cc1)C(N)=O)[C@@H](C)O)C(C)C [Compound 120, N{alpha-4}-(3-methylbutanoyl)-N{epsilon-7}-(6-[(4S)-4-carboxy-4-(17-carboxyheptadecanamido)butanamido]hexanoyl)-[4A,6A,7K,9E,11A,13T,17I,18Q,22V,23A,28Y,30W,31L]-hPYY(4-36)] | 0.0 | 0.2 | 1.49
5 | CC(C)CC(=O)N[C@@H](C)C(=O)N1CCC[C@H]1C(=O)N[C@@H](CCC(=O)O)C(=O)N[C@@H](CCCCNC(=O)CCCCCNC(=O)CC[C@H](NC(=O)CCCCCCCCCCCCCCCCC(=O)O)C(=O)O)C(=O)N1CCC[C@H]1C(=O)N[C@@H](CCC(=O)O)C(=O)N[C@@H](C)C(=O)N[C@@H](CC(=O)O)C(=O)N[C@@H](C)C(=O)N[C@@H](CO)C(=O)N1CCC[C@H]1C(=O)N[C@@H](CCC(=O)O)C(=O)N[C@@H](CCC(=O)O)C(=O)N[C@@H](CC(C)C)C(=O)N[C@@H](CCC(N)=O)C(=O)N[C@@H](CCCNC(=N)N)C(=O)N[C@@H](Cc1ccc(O)cc1)C(=O)N[C@@H](Cc1ccc(O)cc1)C(=O)N[C@H](C(=O)N[C@@H](CCC(N)=O)C(=O)N[C@@H](CC(C)C)C(=O)N[C@@H](CCCNC(=N)N)C(=O)N[C@@H](Cc1c[nH]cn1)C(=O)N[C@@H](Cc1ccc(O)cc1)C(=O)N[C@@H](Cc1ccc(O)cc1)C(=O)N[C@@H](CC(N)=O)C(=O)N[C@@H](Cc1c[nH]c2ccccc12)C(=O)N[C@@H](CC(C)C)C(=O)N[C@H](C(=O)N[C@@H](CCCNC(=N)N)C(=O)N[C@@H](CCC(N)=O)C(=O)N[C@@H](CCCNC(=N)N)C(=O)N[C@@H](Cc1ccc(O)cc1)C(N)=O)[C@@H](C)O)C(C)C [Compound 121, N{alpha-4}-(3-methylbutanoyl)-N{epsilon-7}-(6-[(4S)-4-carboxy-4-(17-carboxyheptadecanamido)butanamido]hexanoyl)-[4A,7K,9E,10A,18Q,22V,23Q,28Y,30W,31L]-hPYY(4-36)] | 9.1 | 8.9 | 1.45
6 | CC(C)CC(=O)N[C@@H](C)C(=O)N1CCC[C@H]1C(=O)N[C@@H](CCC(=O)O)C(=O)N[C@@H](CCCCNC(=O)CCCCCNC(=O)CC[C@H](NC(=O)CCCCCCCCCCCCCCCCC(=O)O)C(=O)O)C(=O)N1CCC[C@H]1C(=O)N[C@@H](CCC(=O)O)C(=O)N[C@@H](CCC(=O)O)C(=O)N[C@@H](CC(=O)O)C(=O)N[C@@H](C)C(=O)N[C@@H](C)C(=O)N1CCC[C@H]1C(=O)N[C@@H](CCC(=O)O)C(=O)N[C@@H](CCC(=O)O)C(=O)N[C@@H](CC(C)C)C(=O)N[C@@H](CCC(N)=O)C(=O)N[C@@H](CCCCN)C(=O)N[C@@H](Cc1ccc(O)cc1)C(=O)N[C@@H](Cc1ccc(O)cc1)C(=O)N[C@H](C(=O)N[C@@H](CO)C(=O)N[C@@H](CC(C)C)C(=O)N[C@@H](CCCNC(=N)N)C(=O)N[C@@H](Cc1c[nH]cn1)C(=O)N[C@@H](Cc1ccc(O)cc1)C(=O)N[C@@H](Cc1ccc(O)cc1)C(=O)N[C@@H](CC(N)=O)C(=O)N[C@@H](Cc1c[nH]c2ccccc12)C(=O)N[C@@H](CC(C)C)C(=O)N[C@H](C(=O)N[C@@H](CCCNC(=N)N)C(=O)N[C@@H](CCC(N)=O)C(=O)N[C@@H](CCCNC(=N)N)C(=O)N[C@@H](Cc1ccc(O)cc1)C(N)=O)[C@@H](C)O)C(C)C [Compound 123, N{alpha-4}-(3-methylbutanoyl)-N{epsilon-7}-(6-[(4S)-4-carboxy-4-(17-carboxyheptadecanamido)butanamido]hexanoyl)-[4A,7K,9E,13A,18Q,19K,22V,28Y,30W,31L]-hPYY(4-36)] | 9.1 | 8.7 | 3.65
